These results are taken from patent publication US12595230B2, “Substituted 6,7-dihydro-5H-benzo[7]annulene compounds and their derivatives, processes for their preparation and therapeutic uses thereof” (Sanofi, priority 2020, dated 2026).

Structures are written as SMILES. pIC50: −log10 of the molar value.

For the assay, the target named is T1, ERα (Homo sapiens, UniProt P03372).
T1 construct: host or cells: MCF7
T1 sequence (P03372 1-595): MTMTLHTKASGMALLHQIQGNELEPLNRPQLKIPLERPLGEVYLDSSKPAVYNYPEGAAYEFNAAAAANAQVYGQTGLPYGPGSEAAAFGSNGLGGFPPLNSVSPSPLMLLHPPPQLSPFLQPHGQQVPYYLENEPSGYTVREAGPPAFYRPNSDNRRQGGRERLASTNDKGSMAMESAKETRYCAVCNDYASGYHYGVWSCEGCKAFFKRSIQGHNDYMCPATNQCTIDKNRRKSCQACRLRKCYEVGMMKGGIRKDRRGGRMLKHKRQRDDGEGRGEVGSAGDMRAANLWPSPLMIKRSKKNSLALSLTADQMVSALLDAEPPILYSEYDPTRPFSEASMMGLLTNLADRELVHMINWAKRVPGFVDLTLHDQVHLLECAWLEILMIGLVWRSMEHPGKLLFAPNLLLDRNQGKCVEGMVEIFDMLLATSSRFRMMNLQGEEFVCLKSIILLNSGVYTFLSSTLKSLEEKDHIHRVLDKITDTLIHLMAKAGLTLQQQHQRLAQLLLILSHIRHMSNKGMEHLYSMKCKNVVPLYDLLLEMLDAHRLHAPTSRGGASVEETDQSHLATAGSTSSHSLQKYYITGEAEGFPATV
The assay is described as follows: Estrogen receptor degradation activity: breast cancer cell ERα in cell western assay (MCF7 cells). It is filed as cell-based. Particulars: for % Degradation At 0.3 μM: 4 hours, relative to fulvestrant 0.1 μM positive control; for DC50: read-out: Degradation IC50. In short, it runs like this:
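Compounds were applied to MCF7 cells in stripped-serum, phenol red-free medium for 4 h at final 0.3–0.0000018 μM, with fulvestrant (0.1 μM) as control. Value: IC50 (nM) for 50% ERα degradation.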

The mark [1] stands for this setting: 4 hours post compound addition, concentration which degrades 50% of the estrogen receptor.

For `O=C(O)c1ccc2c(c1)CCCC(c1ccccc1CC(F)(F)F)=C2c1ccc(CC2CN(CCCF)C2)cc1` [Example 301, 9-(4-((1-(3-fluoropropyl)azetidin-3-yl)methyl)phenyl)-8-(2-(2,2,2-trifluoroethyl)phenyl)-6,7-dihydro-5H-benzo[7]annulene-3-carboxylic acid], the “% Degradation At 0.3 μM” value is given as 89%. Further, the DC50 under setting [1] was determined as 0.5 nM.
In the case of `CCOC(c1ccc(C2=C(c3ccc(Cl)cc3Cl)CCCc3cc(C(=O)O)ccc32)cc1)C1CN(CCCF)C1` (single isomer, unassigned; isomer 2) [Example 230, 8-(2,4-dichlorophenyl)-9-(4-(ethoxy(1-(3-fluoropropyl)azetidin-3-yl)methyl)phenyl)-6,7-dihydro-5H-benzo[7]annulene-3-carboxylic Acid Isomer 2], the “% Degradation At 0.3 μM” value is 78%. For the same compound, the DC50 under setting [1] was determined as 0.7 nM.
Turning to `COc1nc(C(F)(F)F)ccc1C1=C(c2ccc(CC3CN(CCCF)C3)cc2)c2ccc(C(=O)O)cc2CCC1` [Example 268, 9-(4-((1-(3-fluoropropyl)azetidin-3-yl)methyl)phenyl)-8-(2-methoxy-6-(trifluoromethyl)pyridin-3-yl)-6,7-dihydro-5H-benzo[7]annulene-3-carboxylic acid], the “% Degradation At 0.3 μM” value was found to be 89%. Moreover, the DC50 under setting [1] is 0.5 nM.
`O=C([O-])c1ccc2c(c1)CCCC(c1cc(C(F)F)ccc1F)=C2c1ccc(CC2CN(CCCF)C2)cc1.[Na+]` [Example 273, sodium 8-(5-(difluoromethyl)-2-fluorophenyl)-9-(4-((1-(3-fluoropropyl)azetidin-3-yl)methyl)phenyl)-6,7-dihydro-5H-benzo[7]annulene-3-carboxylate]: the “% Degradation At 0.3 μM” value came to 89%. Also, the DC50 under setting [1] was 0.6 nM.
The corresponding values for `Cc1cc(F)ccc1C1=C(c2ccc(CC3CN(CCC(F)F)C3)cc2)c2ccc(C(=O)O)cc2CCC1` [Example 279, 9-(4-((1-(3,3-difluoropropyl)azetidin-3-yl)methyl)phenyl)-8-(4-fluoro-2-methylphenyl)-6,7-dihydro-5H-benzo[7]annulene-3-carboxylic acid] are 84% and 0.2 nM.
For `Cl.O=C(O)c1ccc2c(c1)CCCC(c1ccccc1)=C2c1ccc(CC2CN(CCCF)C2)cc1` [Example 1, 9-(4-((1-(3-Fluoropropyl)azetidin-3-yl)methyl)phenyl)-8-phenyl-6,7-dihydro-5H-benzo[7]annulene-3-carboxylic Acid Hydrochloride] the same measures were 83% and 0.4 nM.
Regarding `O=C(O)c1ccc2c(c1)CCCC(c1cccc(C(F)(F)F)c1Cl)=C2c1ccc(CC2CN(CCC(F)(F)F)C2)cc1` [Example 257, 8-(2-chloro-3-(trifluoromethyl)phenyl)-9-(4-((1-(3,3,3-trifluoropropyl)azetidin-3-yl)methyl)phenyl)-6,7-dihydro-5H-benzo[7]annulene-3-carboxylic acid], the “% Degradation At 0.3 μM” value was 83%. Also, the DC50 under setting [1] was determined as 0.7 nM.
The corresponding values for `Cc1c(C(=O)O)ccc2c1CCCC(c1ccc(Cl)cc1Cl)=C2c1ccc(CC2CN(CCCF)C2)cc1.Cl` [Example 250, 8-(2,4-dichlorophenyl)-9-(4-((1-(3-fluoropropyl)azetidin-3-yl)methyl)phenyl)-4-methyl-6,7-dihydro-5H-benzo[7]annulene-3-carboxylic acid hydrochloride] are 90% and 0.6 nM.
For `O=C(O)c1ccc2c(c1)CCCC(c1cc(F)cc(F)c1)=C2c1ccc(CC2CN(CCCF)C2)cc1` [Example 266, 8-(3,5-difluorophenyl)-9-(4-((1-(3-fluoropropyl)azetidin-3-yl)methyl)phenyl)-6,7-dihydro-5H-benzo[7]annulene-3-carboxylic acid] the same measures were 90% and 0.3 nM.
For `O=C(O)c1c(F)cc2c(c1F)CCCC(c1ccc(F)cc1Cl)=C2c1ccc(CC2CN(CCCF)C2)cc1` [Example 216, 8-(2-chloro-4-fluorophenyl)-2,4-difluoro-9-(4-((1-(3-fluoropropyl)azetidin-3-yl)methyl)phenyl)-6,7-dihydro-5H-benzo[7]annulene-3-carboxylic acid] the same measures were 83% and 13.2 nM.
Turning to `O=C(O)c1ccc2c(c1)CCCC(c1cc(CC(F)(F)F)ccc1F)=C2c1ccc(CC2CN(CCCF)C2)cc1` [Example 295, 8-(2-fluoro-5-(2,2,2-trifluoroethyl)phenyl)-9-(4-((1-(3-fluoropropyl)azetidin-3-yl)methyl)phenyl)-6,7-dihydro-5H-benzo[7]annulene-3-carboxylic acid], the “% Degradation At 0.3 μM” value is on record as 86%. In addition, the DC50 under setting [1] worked out at 0.7 nM.
The corresponding values for `Cc1ccc(C2=C(c3ccc(CC4CN(CCCF)C4)cc3)c3ccc(C(=O)O)cc3CCC2)c(Cl)c1.Cl` [Example 7, 8-(2-chloro-4-methylphenyl)-9-(4-((1-(3-fluoropropyl)azetidin-3-yl)methyl)phenyl)-6,7-dihydro-5H-benzo[7]annulene-3-carboxylic acid] are 90% and 0.5 nM.
For `O=C(O)c1ccc2c(c1)CCCC(c1cccc(Cl)c1F)=C2c1ccc(CC2CN(CCCF)C2)cc1` [Example 32, 8-(3-chloro-2-fluorophenyl)-9-(4-((1-(3-fluoropropyl)azetidin-3-yl)methyl)phenyl)-6,7-dihydro-5H-benzo[7]annulene-3-carboxylic acid] the same measures were 94% and 0.6 nM.
For `O=C(O)c1ccc2c(c1)CCCC(c1ccc(Cl)cc1Cl)=C2c1ccc(CC2(O)CN(CCCF)C2)cc1` [Example 233, 8-(2,4-dichlorophenyl)-9-(4-((1-(3-fluoropropyl)-3-hydroxyazetidin-3-yl)methyl)phenyl)-6,7-dihydro-5H-benzo[7]annulene-3-carboxylic acid] the same measures were 85% and 0.5 nM.
Broadly, the pIC50 is −log10 of the IC50, conventionally taken in molar units. For `Cl.O=C(O)c1ccc2c(c1)CCCC(c1ccc(Cl)c(F)c1Cl)=C2c1ccc(CC2CN(CCCF)C2)cc1` [Example 211, 8-(2,4-dichloro-3-fluorophenyl)-9-(4-((1-(3-fluoropropyl)azetidin-3-yl)methyl)phenyl)-6,7-dihydro-5H-benzo[7]annulene-3-carboxylic acid hydrochloride], the “% Degradation At 0.3 μM” value came to 96%. The same compound showed a pIC50 under setting [1] of 10.00.
Take `O=C(O)c1ccc2c(c1)CCCC(c1cccc(Cl)c1C(F)(F)F)=C2c1ccc(CC2CN(CCC(F)(F)F)C2)cc1` [Example 259, 8-(3-chloro-2-(trifluoromethyl)phenyl)-9-(4-((1-(3,3,3-trifluoropropyl)azetidin-3-yl)methyl)phenyl)-6,7-dihydro-5H-benzo[7]annulene-3-carboxylic acid]: the “% Degradation At 0.3 μM” value came to 87%. Also, the DC50 under setting [1] came to 0.4 nM.
The corresponding values for `Cc1c(Cl)cccc1C1=C(c2ccc(CC3CN(CCC(F)(F)F)C3)cc2)c2ccc(C(=O)O)cc2CCC1` [Example 260, 8-(3-chloro-2-methylphenyl)-9-(4-((1-(3,3,3-trifluoropropyl)azetidin-3-yl)methyl)phenyl)-6,7-dihydro-5H-benzo[7]annulene-3-carboxylic acid] are 86% and 0.6 nM.
For `O=C(O)c1ccc2c(c1)CCCC(Cc1ccccc1)=C2c1ccc(CC2CN(CCCF)C2)cc1` [Example 311, 8-benzyl-9-(4-((1-(3-fluoropropyl)azetidin-3-yl)methyl)phenyl)-6,7-dihydro-5H-benzo[7]annulene-3-carboxylic acid] the same measures were 73% and 9 nM.
For `O=C(O)c1ccc2c(c1)CCCC(c1ncc(Cl)cc1C(F)(F)F)=C2c1ccc(CC2CN(CCCF)C2)cc1` [Example 218, 8-(5-chloro-3-(trifluoromethyl)pyridin-2-yl)-9-(4-((1-(3-fluoropropyl)azetidin-3-yl)methyl)phenyl)-6,7-dihydro-5H-benzo[7]annulene-3-carboxylic acid] the same measures were 92% and 0.5 nM.
Take `O=C(O)c1ccc2c(c1)CCCC(c1ccc(Cl)cc1Cl)=C2c1ccc(C(=O)C2CN(CCCF)C2)cc1` [Example 39, 8-(2,4-Dichlorophenyl)-9-(4-(1-(3-fluoropropyl)azetidine-3-carbonyl)phenyl)-6,7-dihydro-5H-benzo[7]annulene-3-carboxylic Acid]: the “% Degradation At 0.3 μM” value is recorded as 92%. The DC50 under setting [1] came to 1.2 nM.
Consider `CC(C)C1CCc2cc(C(=O)O)ccc2C(c2ccc(CC3CN(CCCF)C3)cc2)=C1c1ccc(Cl)cc1Cl` (single isomer, unassigned) [Example 322, 8-(2,4-dichlorophenyl)-9-(4-((1-(3-fluoropropyl)azetidin-3-yl)methyl)phenyl)-7-isopropyl-6,7-dihydro-5H-benzo[7]annulene-3-carboxylic acid], for which the “% Degradation At 0.3 μM” value amounted to 87%. The DC50 under setting [1] amounted to 0.6 nM.
